Data: patent US9458145B2, “Benzimidazole derivatives as bromodomain inhibitors” (Gilead Sciences, Inc., priority 2013, dated 2016)
Where two headings read alike, the source gives them in different places.

Test system: MT-4 cells
Assay: MT-4 proliferation assay
Type: cell-based, human
Settings: Homo sapiens, MT4, 120 h
Experimental: MT-4 Proliferation Assay:
Compounds were tested in a standardized high-throughput 384-well assay format. Each compound was serially diluted 3-fold in 100% DMSO in polypropylene 384-well plates using a Biomek FX Workstation, and 0.4 μL compound added to an assay plate containing 40 μL RPMI media. Compounds were arranged in a horizontal pattern, with 10 concentrations per compound, and 8 compounds added per plate. Due to low DMSO tolerability, the final DMSO concentration never exceeded 0.5% (v/v). Each assay plate contained 10 μM Puromycin and 0.5% DMSO in RPMI-1640 as positive and negative controls respectively. MT-4 cells (HTLV-1 transformed, human T lymphoblastoid cells, NIH Aids Reagent program) were added in volumes of 35 μL per well and 2,000 cells per well using a Biotek uFlow Workstation (Biotek, Winooski, Vt.), and the plates subsequently incubated for 5 days at 37° C. in an incubator set at 5% CO2 and 90% humidity.
After 5 days, 22 μL Cell Titer Glo (Promega) was added to the assay plates with a Biotek uFlow Workstation. Plates were subsequently placed on a Perkin Elmer Envision Plate Reader for 5 minutes before the luminescence signal was read.

[1] = Table 1, 5 days, Cell Titer Glo, method text calls it EC50, read-out: MT4 Assay, (IC50)

| Compound | IC50 [1] | IC50 (read-out: MT4 Assay, (IC50, nM)) |
| --- | --- | --- |
| Cc1noc(C)c1-c1cc(/C=C/c2ccccc2)c2[nH]c(C3CC3)nc2c1 [Compound 1020-37, (E)-4-(2-cyclopropyl-4-styryl-1H-benzo[d]imidazol-6-yl)-3,5-dimethylisoxazole] | 518 nM |  |
| Cc1ccc2ncccc2c1-c1cc(-c2c(C)noc2C)cc2[nH]c(C(O)CCO)nc12 (stereo not drawn) [Compound 1020-89, 1-(6-(3,5-dimethylisoxazol-4-yl)-4-(6-methylquinolin-5-yl)-1H-benzo[d]imidazol-2-yl)propane-1,3-diol] | 104 nM |  |
| Cc1noc(C)c1-c1cc(C(O)C2CCCC2)c2nc(C3CC3)[nH]c2c1 (stereo not drawn) [Compound 1020-121, Cyclopentyl(2-cyclopropyl-6-(3,5-dimethylisoxazol-4-yl)-1H-benzo[d]imidazol-4-yl)methanol] | 42.8 nM |  |
| Cc1ccnc(C)c1-c1cc(-c2c(C)noc2C)cc2nc(C3CC3)[nH]c12 [Compound 1020-57, 4-(2-Cyclopropyl-7-(2,4-dimethylpyridin-3-yl)-1H-benzo[d]imidazol-5-yl)-3,5-dimethylisoxazole] | 13.6 nM |  |
| CC/C=C(\CC)c1cc(-c2c(C)noc2C)cc2nc(C3CC3)[nH]c12 [Compound 1020-28, (E)-4-(2-Cyclopropyl-4-(hex-3-en-3-yl)-1H-benzo[d]imidazol-6-yl)-3,5-dimethylisoxazole] | 51.6 nM |  |
| Cc1n[nH]c(C)c1-c1cc(-c2c(C)noc2C)cc2[nH]c(NCC3CC3)nc12 [Compound 1020-79, N-(Cyclopropylmethyl)-4-(3,5-dimethyl-1H-pyrazol-4-yl)-6-(3,5-dimethylisoxazol-4-yl)-1H-benzo[d]imidazol-2-amine] | 33.8 nM |  |
| Cc1n[nH]c(C)c1-c1cc(-c2c(C)noc2C)cc2nc(C3CC3)n(C)c12 [Compound 1020-72, 4-(2-cyclopropyl-7-(3,5-dimethyl-1H-pyrazol-4-yl)-1-methyl-1H-benzo[d]imidazol-5-yl)-3,5-dimethylisoxazole] | 6.5 nM |  |
| COc1nc2c(-c3c(C)ccc4ncccc34)cc(-c3c(C)noc3C)cc2[nH]1 [Compound 1020-90, 4-(2-methoxy-4-(6-methylquinolin-5-yl)-1H-benzo[d]imidazol-6-yl)-3,5-dimethylisoxazole] | 25 nM |  |
| Cc1noc(C)c1-c1cc(S(=O)(=O)NC2CCCC2)c2nc(NCC(F)(F)F)[nH]c2c1 [Compound 1020-148] | 495 nM |  |
| Cc1ccc2ncccc2c1-c1cc(-c2c(C)noc2C)cc2nc(C3CC3)n(C)c12 [Compound 1020-74, 4-(2-Cyclopropyl-1-methyl-7-(6-methylquinolin-5-yl)-1H-benzo[d]imidazol-5-yl)-3,5-dimethylisoxazole] | 15.3 nM |  |
| Cc1n[nH]c(C)c1-c1cc(-c2c(C)noc2C)cc2[nH]c(NC3CC3)nc12 [Compound 1020-81, N-Cyclopropyl-4-(3,5-dimethyl-1H-pyrazol-4-yl)-6-(3,5-dimethylisoxazol-4-yl)-1H-benzo[d]imidazol-2-amine] | 7.6 nM |  |
| Cc1noc(C)c1-c1cc(S(=O)(=O)NC2CCCC2)c2nc([S+](C)[O-])[nH]c2c1 (stereo not drawn) [Compound 1020-5, N-Cyclopentyl-6-(3,5-dimethylisoxazol-4-yl)-2-(methylsulfinyl)-1H-benzo[d]imidazole-4-sulfonamide] |  | 329 nM |
| Cc1ccc2ncccc2c1-c1cc(-c2c(C)noc2C)cc2[nH]c(-c3cnn(C)c3)nc12 [Compound 1020-88, 3,5-Dimethyl-4-(2-(1-methyl-1H-pyrazol-4-yl)-4-(6-methylquinolin-5-yl)-1H-benzo[d]imidazol-6-yl)isoxazole] | 45.2 nM |  |
| Cc1ccnc(C)c1-c1cc(-c2c(C)noc2C)cc2[nH]cnc12 [Compound 1020-84, 4-(4-(2,4-Dimethylpyridin-3-yl)-1H-benzo[d]imidazol-6-yl)-3,5-dimethylisoxazole] | 236 nM |  |
| Cc1noc(C)c1-c1cc(NC2CCCC2)c2nc(C3CC3)[nH]c2c1 [Compound 1020-50, N-Cyclopentyl-2-cyclopropyl-6-(3,5-dimethylisoxazol-4-yl)-1H-benzo[d]imidazol-4-amine] | 353 nM |  |
| Cc1noc(C)c1-c1cc(C(C)c2ccc(F)cc2)c2[nH]c(C3CC3)nc2c1 (stereo not drawn) [Compound 1020-44, 4-(2-Cyclopropyl-4-(1-(4-fluorophenyl)ethyl)-1H-benzo[d]imidazol-6-yl)-3,5-dimethylisoxazole] | 86.1 nM |  |
| Cc1n[nH]c(C)c1-c1cc(-c2c(C)noc2C)cc2nc(C3CC3(F)F)[nH]c12 (stereo not drawn) [Compound 1020-78, 4-(2-(2,2-Difluorocyclopropyl)-7-(3,5-dimethyl-1H-pyrazol-4-yl)-1H-benzo[d]imidazol-5-yl)-3,5-dimethylisoxazole] | 25.7 nM |  |
| CCC(CC)c1cc(-c2c(C)noc2C)cc2[nH]c(C3CC3)nc12 [Compound 1020-120, 4-(2-Cyclopropyl-4-(pentan-3-yl)-1H-benzo[d]imidazol-6-yl)-3,5-dimethylisoxazole] | 48.8 nM |  |
| CCC1CCC(=O)N1c1cc(-c2c(C)noc2C)cc2[nH]c(C3CC3)nc12 (stereo not drawn) [Compound 1020-137, 1-(2-Cyclopropyl-6-(3,5-dimethylisoxazol-4-yl)-1H-benzo[d]imidazol-4-yl)-5-ethylpyrrolidin-2-one] | 113 nM |  |
| Cc1cnn(C)c1-c1cc(-c2c(C)noc2C)cc2nc(C3CC3)[nH]c12 [Compound 1020-12, 4-(2-Cyclopropyl-7-(1,4-dimethyl-1H-pyrazol-5-yl)-1H-benzo[d]imidazol-5-yl)-3,5-dimethylisoxazole] | 21.3 nM |  |
| CCC(O)(CC)c1cc(-c2c(C)noc2C)cc2c1nc(C1CC1)n2C [Compound 1020-132, 3-(2-Cyclopropyl-6-(3,5-dimethylisoxazol-4-yl)-1-methyl-1H-benzo[d]imidazol-4-yl)pentan-3-ol] | 544 nM |  |
| Cc1noc(C)c1-c1cc(-c2cccnc2-c2ccccc2)c2nc(C3CC3)[nH]c2c1 [Compound 1020-19, 4-(2-Cyclopropyl-4-(2-phenylpyridin-3-yl)-1H-benzo[d]imidazol-6-yl)-3,5-dimethylisoxazole] | 24.4 nM |  |
| Cc1nc2cc(-c3c(C)noc3C)cc(-c3c(C)n[nH]c3C)c2[nH]1 [Compound 1020-77, 4-(7-(3,5-Dimethyl-1H-pyrazol-4-yl)-2-methyl-1H-benzo[d]imidazol-5-yl)-3,5-dimethylisoxazole] | 39.4 nM |  |
| Cc1ccc2ncccc2c1-c1cc(-c2c(C)noc2C)cc2[nH]c(C(F)(F)F)nc12 [Compound 1020-92, 3,5-Dimethyl-4-(4-(6-methylquinolin-5-yl)-2-(trifluoromethyl)-1H-benzo[d]imidazol-6-yl)isoxazole] | 73.1 nM |  |
| Cc1n[nH]c(C)c1-c1cc(-c2c(C)noc2C)cc2nc(N)[nH]c12 [Compound 1020-96, 4-(3,5-Dimethyl-1H-pyrazol-4-yl)-6-(3,5-dimethylisoxazol-4-yl)-1H-benzo[d]imidazol-2-amine] | 318 nM |  |
| Cc1noc(C)c1-c1cc(S(=O)(=O)NC2CCCC2)c2nc(Cc3ccccc3)[nH]c2c1 [Compound 1020-141, 2-Benzyl-N-cyclopentyl-6-(3,5-dimethylisoxazol-4-yl)-1H-benzo[d]imidazole-4-sulfonamide] | 887 nM |  |
| Cc1noc(C)c1-c1cc(N2C(=O)CCC2C)c2nc(C3CC3)[nH]c2c1 (stereo not drawn) [Compound 1020-136, 1-(2-Cyclopropyl-6-(3,5-dimethylisoxazol-4-yl)-1H-benzo[d]imidazol-4-yl)-5-methylpyrrolidin-2-one] | 335 nM |  |
